Measurements from PubChem BioAssay (NCI).
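These data come from cells grown in 96-well plates and exposed to compound for 48 hours at five concentrations. Definition used: TGI = concentration required for complete inhibition of growth.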

Columns and labels:
Assay in all cases: inhibition of tumour cell growth, NCI panel, 48 h
[1] = tested on: A549 NSCLC
[2] = tested on: ACHN renal
[3] = tested on: CAKI-1 renal
[4] = tested on: COLO 205 colon
[5] = tested on: HCC-2998 colon
[6] = tested on: HCT-116 colon
[7] = tested on: HS 578T breast
[8] = tested on: K-562 leukemia
[9] = tested on: KM12 colon
[10] = tested on: LOX IMVI melanoma
[11] = tested on: MDA-MB-435
[12] = tested on: MDA-N
[13] = tested on: NCI-H23 lung
[14] = tested on: OVCAR-5 ovarian
[15] = tested on: PC-3 prostate
[16] = tested on: RXF 393 renal
[17] = tested on: SF-539 CNS
[18] = tested on: SK-MEL-28 melanoma
[19] = tested on: SNB-19 CNS
[20] = tested on: UACC-257 melanoma

CC(=O)O[C@H]1C(=O)[C@@]2(C)[C@H]([C@H](OC(=O)c3ccncc3)[C@]3(O)C[C@H](OC(=O)[C@H](O)[C@@H](NC(=O)c4ccccc4)c4ccccc4)C(C)=C1C3(C)C)[C@]1(OC(C)=O)CO[C@@H]1C[C@@H]2O
TGI [1]: > 25 µM
TGI [2]: > 25 µM
TGI [3]: > 25 µM
TGI [4]: > 20.1 µM
TGI [5]: 11 µM
TGI [6]: > 11.1 µM
TGI [7]: > 21 µM
TGI [8]: 5.36 µM
TGI [9]: > 25 µM
TGI [10]: > 25 µM
TGI [11]: 1.96 µM
TGI [12]: 2.1 µM
TGI [13]: > 25 µM
TGI [14]: > 25 µM
TGI [15]: > 21 µM
TGI [16]: > 23.3 µM
TGI [17]: 4.55 µM
TGI [18]: > 25 µM
TGI [19]: > 25 µM
TGI [20]: > 25 µM

Clc1cccc(Cl)c1C1SCc2nc3ncccc3n21 (stereo not given)
TGI [1]: > 100 µM
TGI [2]: > 100 µM
TGI [3]: > 100 µM
TGI [4]: > 100 µM
TGI [5]: > 100 µM
TGI [6]: > 100 µM
TGI [7]: > 100 µM
TGI [8]: > 100 µM
TGI [9]: > 100 µM
TGI [10]: > 100 µM
TGI [11]: > 100 µM
TGI [12]: > 100 µM
TGI [13]: > 100 µM
TGI [14]: > 100 µM
TGI [15]: > 100 µM
TGI [16]: > 100 µM
TGI [17]: > 100 µM
TGI [18]: > 100 µM
TGI [19]: > 100 µM
TGI [20]: > 100 µM

CC(=O)OCC1OC(OC2CC3C(C)(C)C(=O)CC[C@]3(C)C3CC[C@]45C[C@]4(CCC5[C@@H](C)CC(O)C(O)C(C)(C)O)[C@]23C)C(O)C(O)C1O (stereo not given in full)
TGI [1]: 31.6 µM
TGI [2]: 30 µM
TGI [3]: 31.1 µM
TGI [4]: 18.5 µM
TGI [5]: 21.7 µM
TGI [6]: 20 µM
TGI [7]: 24.5 µM
TGI [8]: 21.7 µM
TGI [9]: 19.1 µM
TGI [10]: 12.6 µM
TGI [11]: 21.2 µM
TGI [12]: 22.7 µM
TGI [13]: 32.7 µM
TGI [14]: 30.8 µM
TGI [15]: 21.5 µM
TGI [16]: 21.9 µM
TGI [17]: 28.8 µM
TGI [18]: 12.6 µM
TGI [19]: 23.3 µM
TGI [20]: 23.6 µM

CCCCC/C(=N\c1nc[nH]c1C(N)=O)OCC
TGI [1]: > 100 µM
TGI [2]: > 100 µM
TGI [3]: > 100 µM
TGI [4]: > 100 µM
TGI [5]: > 100 µM
TGI [6]: > 100 µM
TGI [7]: > 100 µM
TGI [8]: > 100 µM
TGI [9]: > 100 µM
TGI [10]: > 100 µM
TGI [11]: > 100 µM
TGI [12]: > 100 µM
TGI [13]: > 100 µM
TGI [14]: > 100 µM
TGI [15]: > 100 µM
TGI [16]: > 100 µM
TGI [17]: > 100 µM
TGI [18]: > 100 µM
TGI [19]: > 100 µM
TGI [20]: > 100 µM

[O-][n+]1onc2c1-c1nonc1CC2
TGI [1]: > 100 µM
TGI [2]: 88.2 µM
TGI [3]: > 100 µM
TGI [4]: > 100 µM
TGI [5]: > 100 µM
TGI [6]: 46.2 µM
TGI [7]: 66.8 µM
TGI [8]: > 100 µM
TGI [9]: 81.5 µM
TGI [10]: 79 µM
TGI [11]: > 100 µM
TGI [12]: > 100 µM
TGI [13]: 61.4 µM
TGI [14]: > 100 µM
TGI [15]: 77.8 µM
TGI [16]: 69.5 µM
TGI [17]: 53.4 µM
TGI [18]: > 100 µM
TGI [19]: > 100 µM
TGI [20]: 59.4 µM

CCCCN1C(=O)C[C@H]2[C@@H]3CCc4cc(OCCN5CCCC5)ccc4[C@H]3CC[C@]2(C)C1=O
TGI [1]: 22.5 µM
TGI [2]: 25.5 µM
TGI [3]: 19.2 µM
TGI [4]: 3.95 µM
TGI [5]: 15.8 µM
TGI [6]: 16.4 µM
TGI [7]: 39.8 µM
TGI [8]: 7.23 µM
TGI [9]: 21.9 µM
TGI [10]: 10.8 µM
TGI [11]: 19.1 µM
TGI [12]: 15.1 µM
TGI [13]: 25.6 µM
TGI [14]: 24.3 µM
TGI [15]: 20.4 µM
TGI [16]: 4.59 µM
TGI [17]: 21.4 µM
TGI [18]: 12 µM
TGI [19]: 26.5 µM
TGI [20]: 13.4 µM
